According to ChEMBL document CHEMBL3045633, “Synthesis and antimicrobial activity of newer indole semicarbazones” (2012):
In brackets after ≈: the same amount, converted by molar mass.

Columns and labels:
Type in all cases: functional
Diutina rugosa [1] = experiment: Antifungal activity against Candida rugosa at 150 ug after 48 hr by agar cup bioassay; settings: read-out: DIZ
Candida albicans [2] = experiment: Antifungal activity against Candida albicans at 150 ug after 48 hr by agar cup bioassay; settings: read-out: DIZ
Klebsiella pneumoniae = experiment: Antibacterial activity against Klebsiella pneumoniae after 24 hr by broth dilution method
Candida albicans [3] = experiment: Antifungal activity against Candida albicans at 100 ug after 48 hr by agar cup bioassay; settings: read-out: DIZ
Bacillus subtilis = experiment: Antibacterial activity against Bacillus subtilis after 24 hr by broth dilution method
Staphylococcus aureus = experiment: Antibacterial activity against Staphylococcus aureus after 24 hr by broth dilution method
[4] = system: Staphylococcus epidermidis; experiment: Antibacterial activity against Staphylococcus epidermidis after 24 hr by broth dilution method
Pseudomonas aeruginosa = experiment: Antibacterial activity against Pseudomonas aeruginosa after 24 hr by broth dilution method
Escherichia coli = experiment: Antibacterial activity against Escherichia coli after 24 hr by broth dilution method
Diutina rugosa [5] = experiment: Antifungal activity against Candida rugosa at 100 ug after 48 hr by agar cup bioassay; settings: read-out: DIZ
Candida albicans [6] = experiment: Antifungal activity against Candida albicans at 50 ug after 48 hr by agar cup bioassay; settings: read-out: DIZ
Diutina rugosa [7] = experiment: Antifungal activity against Candida rugosa at 50 ug after 48 hr by agar cup bioassay; settings: read-out: DIZ

Row | SMILES | zone of inhibition at 150 µg/disc (Diutina rugosa [1]) | zone of inhibition at 150 µg/disc (Candida albicans [2]) | MIC (Klebsiella pneumoniae) | zone of inhibition at 100 µg/disc (Candida albicans [3]) | MIC (Bacillus subtilis) | MIC (Staphylococcus aureus) | MIC [4] | MIC (Pseudomonas aeruginosa) | MIC (Escherichia coli) | zone of inhibition at 100 µg/disc (Diutina rugosa [5]) | zone of inhibition at 50 µg/disc (Candida albicans [6]) | zone of inhibition at 50 µg/disc (Diutina rugosa [7])
1 | NC(=O)N/N=C/c1c(-c2ccccc2)n(CC(=O)c2ccc(Cl)cc2)c2ccccc12 | 12 mm | 10 mm | 120 µg/mL (≈ 278 µM) | 4 mm | 110 µg/mL (≈ 255 µM) | 130 µg/mL (≈ 302 µM) | 140 µg/mL (≈ 325 µM) | 115 µg/mL (≈ 267 µM) | 125 µg/mL (≈ 290 µM) | 5 mm |  | 
2 | NC(=O)N/N=C/c1c(-c2ccccc2)n(CC(=O)c2ccc(Br)cc2)c2ccccc12 |  |  | 130 µg/mL (≈ 273 µM) |  | 105 µg/mL (≈ 221 µM) | 125 µg/mL (≈ 263 µM) | 130 µg/mL (≈ 273 µM) | 135 µg/mL (≈ 284 µM) | 120 µg/mL (≈ 252 µM) |  |  | 
3 | CCCCn1c(-c2ccccc2)c(/C=N/NC(N)=O)c2ccccc21 | 10 mm | 12 mm | 110 µg/mL (≈ 329 µM) | 9 mm | > 150 µg/mL | 125 µg/mL (≈ 374 µM) | 135 µg/mL (≈ 404 µM) | 120 µg/mL (≈ 359 µM) | 140 µg/mL (≈ 419 µM) | 9 mm |  | 
4 | NC(=O)N/N=C/c1c(-c2ccccc2)n(CC(=O)c2ccccc2)c2ccccc12 | 8 mm | 8 mm | 115 µg/mL (≈ 290 µM) | 0 mm | 125 µg/mL (≈ 315 µM) | 130 µg/mL (≈ 328 µM) | 110 µg/mL (≈ 277 µM) | 100 µg/mL (≈ 252 µM) | 100 µg/mL (≈ 252 µM) | 0 mm |  | 
5 | Cc1ccc(C(=O)Cn2c(-c3ccccc3)c(/C=N/NC(N)=O)c3ccccc32)cc1 | 10 mm | 10 mm | > 150 µg/mL | 7 mm | > 150 µg/mL | 130 µg/mL (≈ 317 µM) | 125 µg/mL (≈ 305 µM) | > 150 µg/mL | 130 µg/mL (≈ 317 µM) | 7 mm |  | 
6 | COc1ccc(C(=O)Cn2c(-c3ccccc3)c(/C=N/NC(N)=O)c3ccccc32)cc1 | 10 mm | 10 mm | 120 µg/mL (≈ 281 µM) | 8 mm | 140 µg/mL (≈ 328 µM) | 110 µg/mL (≈ 258 µM) | 130 µg/mL (≈ 305 µM) | 145 µg/mL (≈ 340 µM) | 140 µg/mL (≈ 328 µM) | 8 mm |  | 
7 | C=CCn1c(-c2ccccc2)c(/C=N/NC(N)=O)c2ccccc21 | 12 mm | 15 mm | > 150 µg/mL | 10 mm | 140 µg/mL (≈ 440 µM) | 125 µg/mL (≈ 393 µM) | 115 µg/mL (≈ 361 µM) | 125 µg/mL (≈ 393 µM) | 120 µg/mL (≈ 377 µM) | 7 mm |  | 
8 | O=C(O)c1cn(C2CC2)c2cc(N3CCNCC3)c(F)cc2c1=O [CIPROFLOXACIN] |  |  | 25 µg/mL (≈ 75.4 µM) |  | 24 µg/mL (≈ 72.4 µM) |  | 22 µg/mL (≈ 66.4 µM) |  | 20 µg/mL (≈ 60.4 µM) |  |  | 
9 | NC(=O)N/N=C/c1c(-c2ccccc2)n(CC(=O)c2ccc([N+](=O)[O-])cc2)c2ccccc12 | 14 mm | 14 mm | 37.5 µg/mL (≈ 84.9 µM) | 9 mm | 120 µg/mL (≈ 272 µM) | 125 µg/mL (≈ 283 µM) | 110 µg/mL (≈ 249 µM) | 75 µg/mL (≈ 170 µM) | 130 µg/mL (≈ 294 µM) | 10 mm |  | 
10 | C[C@@H]1[C@H](O)[C@@H](C)/C=C/C=C/C=C/C=C/C=C/C=C/C=C/[C@H](O[C@@H]2O[C@H](C)[C@@H](O)[C@H](N)[C@@H]2O)C[C@@H]2O[C@](O)(C[C@@H](O)C[C@@H](O)[C@H](O)CC[C@@H](O)C[C@@H](O)CC(=O)O[C@H]1C)C[C@H](O)[C@H]2C(=O)O [AMPHOTERICIN B] |  |  |  |  |  |  |  |  |  |  | 23.5 mm | 21 mm
11 | NC(=O)N/N=C/c1c(-c2ccccc2)n(CC(=O)c2ccc(-c3ccccc3)cc2)c2ccccc12 |  |  | 135 µg/mL (≈ 286 µM) |  | > 150 µg/mL | 110 µg/mL (≈ 233 µM) | 130 µg/mL (≈ 275 µM) | 105 µg/mL (≈ 222 µM) | 120 µg/mL (≈ 254 µM) |  |  | 
12 | C#CCn1c(-c2ccccc2)c(/C=N/NC(N)=O)c2ccccc21 | 15 mm | 13 mm | 110 µg/mL (≈ 348 µM) | 8 mm | 125 µg/mL (≈ 395 µM) | > 150 µg/mL | > 150 µg/mL | > 150 µg/mL | > 150 µg/mL | 10 mm |  | 
